# Where “and” joins values, the source holds several entries; their conditions need not be identical. Equal entries are not always repeated. Where two headings read alike, the source gives them in different places.
# Assay: logP by HPLC on reversed-phase columns (C18), EEC Directive 79/831 Annex V.A8
# Type: physicochemical
# Experimental: The logP values reported in the table above and in the Preparation Examples were determined in accordance with EEC Directive 79/831 Annex V.A8 by HPLC (High Performance Liquid Chromatography) on reversed-phase columns (C18), with the following methods:
# The LC-MS determination in the acidic range is carried out at pH 2.7 using the mobile phases 0.1% aqueous formic acid and acetonitrile (contains 0.1% formic acid), linear gradient from 10% acetonitrile to 95% acetonitrile
# Calibration was carried out using unbranched alkan-2-ones (having from 3 to 16 carbon atoms) with known logP values (the logP values were determined by the retention times using linear interpolation between two successive alkanones).
# [1] = reversed-phase HPLC column (C18), pH 2.7, HPLC reversed-phase C18, acidic range pH 2.7, 0.1% aqueous formic acid/acetonitrile, table of compounds of formula (I), read-out: log P
Compound,"chromatographic logP (pH 2.7, log P)",chromatographic logP [1],also measured
1-(3-Chloropyridin-2-yl)-3-{(E)-2-[5-(trifluoromethyl)-2H-tetrazol-2-yl]vinyl}-1H-pyrazole-5-carboxylic acid/1-(3-chloropyridin-2-yl)-3-{(E)-2-[5-(trifluoromethyl)-1H-tetrazol-1-yl]vinyl}-1H-pyrazole-5-carboxylic acid [Example No. XIV],–,–,"logP (HPLC reversed-phase C18, acidic range pH 2.7, Preparation Examples (intermediates)): 2.79 and 2.86"
CNC(=O)c1cc(Br)cc(C)c1NC(=O)c1cc(C(=O)Nc2ccc(C(F)(F)F)cc2)nn1-c1ncccc1Cl [Example 2],3.53,–,–
CNC(=O)c1cc(Cl)cc(C)c1NC(=O)c1cc(C(=O)Nc2ccc(C(F)(F)F)cc2)nn1-c1ncccc1Cl [Example 5],3.46,–,–
CNC(=O)c1cc(Cl)cc(C)c1NC(=O)c1cc(C(=O)Nc2cc(C(F)(F)F)cc(C(F)(F)F)c2)nn1-c1ncccc1Cl [Example 6],4.16,–,–
Cc1cc(Cl)cc(C(=O)NC(C)C)c1NC(=O)c1cc(C(=O)Nc2cc(C(F)(F)F)cc(C(F)(F)F)c2)nn1-c1ncccc1Cl [Example 7],–,4.62,–
CNC(=O)c1cc(C#N)cc(C)c1NC(=O)c1cc(C#Cc2ccc(OC)cc2)nn1-c1ncccc1Cl [Example 8],3.11,–,–
Cc1cc(Cl)cc(C(N)=O)c1NC(=O)c1cc(C#Cc2ccc(OC(F)(F)F)cc2)nn1-c1ncccc1Cl [Example 9],3.94,–,–
Cc1cc(C#N)cc(C(=O)NC(C)(C)C)c1NC(=O)c1cc(C(=O)Cn2nnc(C(F)(F)F)n2)nn1-c1ncccc1Cl [Example 16],3.66,–,–
CNC(=O)c1cc(C#N)cc(C)c1NC(=O)c1cc(N2CCN(c3cc(C(F)(F)F)cc(C(F)(F)F)c3)C2=O)nn1-c1ncccc1Cl [Example 23],–,4.08,–
Cc1cc(Cl)cc(C(=O)NC(C)(C)C)c1NC(=O)c1cc(N2CCN(c3cc(C(F)(F)F)cc(C(F)(F)F)c3)C2=O)nn1-c1ncccc1Cl [Example 24],–,5.29,–
Cc1cc(C#N)cc(C(=O)NC(C)(C)C)c1NC(=O)c1cc(N2CCN(c3cc(C(F)(F)F)cc(C(F)(F)F)c3)C2=O)nn1-c1ncccc1Cl [Example 25],–,4.84,–
Cc1cc(Cl)cc(C(=O)NC(C)C)c1NC(=O)c1cc(N2CCN(c3cc(C(F)(F)F)cc(C(F)(F)F)c3)C2=O)nn1-c1ncccc1Cl [Example 26],–,4.97,–
Cc1cc(C#N)cc(C(=O)NC(C)C)c1NC(=O)c1cc(N2CCN(c3cc(C(F)(F)F)cc(C(F)(F)F)c3)C2=O)nn1-c1ncccc1Cl [Example 27],–,4.55,–
CNC(=O)c1cc(Cl)cc(C)c1NC(=O)c1cc(N2CCN(Cc3ccc(Cl)nc3)C2=O)nn1-c1ncccc1Cl [Example 28],2.64,–,–
CNC(=O)c1cc(C#N)cc(C)c1NC(=O)c1cc(N2CCN(Cc3ccc(Cl)nc3)C2=O)nn1-c1ncccc1Cl [Example 29],2.31,–,–
Cc1cc(C#N)cc(C(=O)NC(C)(C)C)c1NC(=O)c1cc(N2CCN(Cc3ccc(Cl)nc3)C2=O)nn1-c1ncccc1Cl [Example 30],3.02,–,–
Cc1cc(Cl)cc(C(N)=O)c1NC(=O)c1cc(C(=O)C(=O)c2ccc(Cl)cc2Cl)nn1-c1ncccc1Cl [Example 31],3.51,–,–
Cc1cc(Cl)cc(C(=O)NC(C)C2CC2)c1NC(=O)c1cc(CNS(=O)(=O)c2cc(C(F)(F)F)cc(C(F)(F)F)c2)nn1-c1ncccc1Cl (centres unmarked) [Example 34],–,4.38,–
Cc1cc(Cl)cc(C(=O)NC(C)C)c1NC(=O)c1cc(CNS(=O)(=O)c2cc(C(F)(F)F)cc(C(F)(F)F)c2)nn1-c1ncccc1Cl [Example 35],–,4.1,–
CNC(=O)c1cc(Cl)cc(C)c1NC(=O)c1cc(CNS(=O)(=O)c2cc(C(F)(F)F)cc(C(F)(F)F)c2)nn1-c1ncccc1Cl [Example 36],–,3.62,–
CNC(=O)c1cc(Cl)cc(C)c1NC(=O)c1cc(CNS(=O)(=O)c2ccccc2Cl)nn1-c1ncccc1Cl [Example 37],2.58,–,–

Compound,"chromatographic logP (pH 2.7, log P)",chromatographic logP [1],also measured
Cc1cc(Cl)cc(C(=O)NC(C)C)c1NC(=O)c1cc(CNS(=O)(=O)c2ccccc2Cl)nn1-c1ncccc1Cl [Example 38],3.06,–,–
Cc1cc(Cl)cc(C(=O)NC2CC2)c1NC(=O)c1cc(CNS(=O)(=O)c2ccccc2Cl)nn1-c1ncccc1Cl [Example 39],2.8,–,–
Cc1cc(Cl)cc(C(=O)NC(C)C)c1NC(=O)c1cc(CNS(=O)(=O)c2cc(C(F)(F)F)ccc2C(F)(F)F)nn1-c1ncccc1Cl [Example 40],–,3.84,–
Cc1cc(Cl)cc(C(=O)NC(C)C)c1NC(=O)c1cc(CNS(=O)(=O)c2c(C(F)(F)F)cccc2C(F)(F)F)nn1-c1ncccc1Cl [Example 41],–,3.63,–
Cc1cc(Cl)cc(C(=O)NC(C)C)c1NC(=O)c1cc(CNS(=O)(=O)c2ccc(C(F)(F)F)cc2C(F)(F)F)nn1-c1ncccc1Cl [Example 42],–,3.94,–
Cc1cc(Cl)cc(C(=O)NC(C)C)c1NC(=O)c1cc(CNS(=O)(=O)c2cccc(Cl)c2)nn1-c1ncccc1Cl [Example 43],3.25,–,–
Cc1cc(Cl)cc(C(=O)NC(C)C)c1NC(=O)c1cc(CNS(=O)(=O)c2ccccc2)nn1-c1ncccc1Cl [Example 44],2.84,–,–
Cc1cc(Cl)cc(C(=O)NC(C)C)c1NC(=O)c1cc(CNS(=O)(=O)c2ccccc2C(F)(F)F)nn1-c1ncccc1Cl [Example 45],3.26,–,–
Cc1cc(Cl)cc(C(=O)NC(C)C)c1NC(=O)c1cc(CNS(=O)(=O)c2ccc(Cl)cc2)nn1-c1ncccc1Cl [Example 47],3.25,–,–
Cc1cc(Cl)cc(C(=O)NC(C)C)c1NC(=O)c1cc(CNS(=O)(=O)c2cccc(C(F)(F)F)c2)nn1-c1ncccc1Cl [Example 48],3.43,–,–
Cc1cc(Cl)cc(C(=O)NC(C)C)c1NC(=O)c1cc(CNS(=O)(=O)Cc2ccccc2C(F)(F)F)nn1-c1ncccc1Cl [Example 49],2.62,–,–
Cc1cc(Cl)cc(C(=O)NC(C)C)c1NC(=O)c1cc(CNS(=O)(=O)Cc2ccc(C(F)(F)F)cc2)nn1-c1ncccc1Cl [Example 50],2.28,–,–
Cc1cc(Cl)cc(C(=O)NC(C)C)c1NC(=O)c1cc(CNS(=O)(=O)Cc2cccc(C(F)(F)F)c2)nn1-c1ncccc1Cl [Example 51],3.42,–,–
Cc1cc(Cl)cc(C(=O)NC(C)C)c1NC(=O)c1cc(CNS(=O)(=O)Cc2cc(C(F)(F)F)cc(C(F)(F)F)c2)nn1-c1ncccc1Cl [Example 53],–,3.95,–
Cc1cc(Cl)cc(C(=O)NC(C)C)c1NC(=O)c1cc(CNS(=O)(=O)c2ccc(C(F)(F)F)c(C(F)(F)F)c2)nn1-c1ncccc1Cl [Example 54],–,4,–
Cc1cc(Cl)cc(C(=O)NC(C)C)c1NC(=O)c1cc(CN(Cc2cc(C(F)(F)F)cc(C(F)(F)F)c2)S(C)(=O)=O)nn1-c1ncccc1Cl [Example 57],–,4.26,–
Cc1cc(Cl)cc(C(=O)NC(C)C2CC2)c1NC(=O)c1cc(CN(Cc2cc(C(F)(F)F)cc(C(F)(F)F)c2)S(C)(=O)=O)nn1-c1ncccc1Cl (centres unmarked) [Example 58],–,4.54,–
Cc1cc(C#N)cc(C(=O)NC(C)C)c1NC(=O)c1cc(CN(Cc2cc(C(F)(F)F)cc(C(F)(F)F)c2)S(C)(=O)=O)nn1-c1ncccc1Cl [Example 60],–,3.91,–
Cc1cc(C#N)cc(C(=O)NC(C)C2CC2)c1NC(=O)c1cc(CN(Cc2cc(C(F)(F)F)cc(C(F)(F)F)c2)S(C)(=O)=O)nn1-c1ncccc1Cl (centres unmarked) [Example 61],–,4.12,–
Cc1cc(C#N)cc(C(=O)NC2CC2)c1NC(=O)c1cc(CN(Cc2cc(C(F)(F)F)cc(C(F)(F)F)c2)S(C)(=O)=O)nn1-c1ncccc1Cl [Example 62],–,3.64,–

# — patent publication US8791139B2, “Anthranilic diamide derivatives” (Bayer Cropscience AG, priority 2010, dated 2014)
